We go through nine compounds from ChEMBL document CHEMBL2073963, “Transport of methotrexate (MTX) and folates by multidrug resistance protein (MRP) 3 and MRP1: effect of polyglutamylation on MTX transport” (Cancer Res, 2001).

What all share (type): functional, cell membranes
Parameters in all cases: scale not given: the % may be the effect or the level left

In assay [1] the target is Multidrug resistance associated protein (Homo sapiens) (UniProt Q96QA9). Description: TP_TRANSPORTER: inhibition of MTX uptake (MTX: 1 uM, Vincristine: 300 uM) in membrane vesicle from MRP3-expessing HEK 293 cell. Particulars: HEK293.
Multidrug resistance associated protein (Homo sapiens), sequence (Q96QA9 as listed by the source): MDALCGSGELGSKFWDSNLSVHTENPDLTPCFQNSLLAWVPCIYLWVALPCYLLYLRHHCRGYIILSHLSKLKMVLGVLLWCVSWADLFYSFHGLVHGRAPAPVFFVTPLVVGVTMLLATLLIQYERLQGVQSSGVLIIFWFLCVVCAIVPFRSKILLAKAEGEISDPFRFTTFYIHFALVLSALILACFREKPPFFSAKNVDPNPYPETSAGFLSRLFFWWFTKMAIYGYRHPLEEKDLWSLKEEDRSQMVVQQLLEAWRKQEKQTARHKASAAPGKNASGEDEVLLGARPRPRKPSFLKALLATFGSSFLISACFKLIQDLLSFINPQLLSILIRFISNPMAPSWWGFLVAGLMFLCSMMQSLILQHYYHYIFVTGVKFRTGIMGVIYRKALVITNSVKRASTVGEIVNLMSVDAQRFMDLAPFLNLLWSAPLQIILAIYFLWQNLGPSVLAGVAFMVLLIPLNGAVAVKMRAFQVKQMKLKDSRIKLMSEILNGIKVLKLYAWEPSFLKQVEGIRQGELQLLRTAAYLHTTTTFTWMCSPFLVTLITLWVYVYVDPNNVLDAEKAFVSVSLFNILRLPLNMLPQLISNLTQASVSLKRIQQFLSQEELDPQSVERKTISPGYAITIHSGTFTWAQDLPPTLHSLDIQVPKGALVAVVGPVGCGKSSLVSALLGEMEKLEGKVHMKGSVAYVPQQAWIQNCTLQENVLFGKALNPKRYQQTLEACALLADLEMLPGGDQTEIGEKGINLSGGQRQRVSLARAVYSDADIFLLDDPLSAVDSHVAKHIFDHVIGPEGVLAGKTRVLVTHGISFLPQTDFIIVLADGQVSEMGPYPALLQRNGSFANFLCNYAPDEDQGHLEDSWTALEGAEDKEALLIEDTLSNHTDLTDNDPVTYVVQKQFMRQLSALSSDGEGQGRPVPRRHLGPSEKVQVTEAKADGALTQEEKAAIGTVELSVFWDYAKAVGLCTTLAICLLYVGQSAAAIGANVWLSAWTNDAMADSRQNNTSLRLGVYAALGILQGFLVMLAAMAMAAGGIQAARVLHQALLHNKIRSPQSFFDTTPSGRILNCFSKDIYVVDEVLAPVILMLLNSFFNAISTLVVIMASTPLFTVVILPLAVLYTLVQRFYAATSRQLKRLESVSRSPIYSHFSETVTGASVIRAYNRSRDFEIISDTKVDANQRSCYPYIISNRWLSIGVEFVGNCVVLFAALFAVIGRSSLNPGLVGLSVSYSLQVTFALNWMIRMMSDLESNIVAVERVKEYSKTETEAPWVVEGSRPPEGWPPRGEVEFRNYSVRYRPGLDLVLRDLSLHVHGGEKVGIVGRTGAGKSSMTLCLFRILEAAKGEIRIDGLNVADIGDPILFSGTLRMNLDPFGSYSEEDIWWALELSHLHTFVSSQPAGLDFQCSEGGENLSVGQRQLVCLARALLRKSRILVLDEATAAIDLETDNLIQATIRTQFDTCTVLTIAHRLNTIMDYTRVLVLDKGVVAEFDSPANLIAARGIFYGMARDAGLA
For assay [2] the target is unchanged. In words: TP_TRANSPORTER: inhibition of MTX uptake (MTX: 1 uM, AG-A: 1000 uM) in membrane vesicles from MRP3-expressing HEK293 cells. Particulars: Membrane vesicle.
Assay [3] shares this target. In words: TP_TRANSPORTER: inhibition of MTX uptake (MTX: 1 uM, DOX;G: 300 uM) in membrane vesicles from MRP3-expressing HEK293 cells. To be noted: Membrane vesicle.
The target is the same in assay [4]. Description: TP_TRANSPORTER: inhibition of MTX uptake (MTX: 1 uM, E217betaG: 100 uM) in membrane vesicles from MRP3-expressing HEK293 cells. Particulars: Membrane vesicle.
Assay [5] shares this target. In words: TP_TRANSPORTER: inhibition of MTX uptake (MTX: 1 uM, PAK-104P: 100 uM) in membrane vesicles from MRP3-expressing HEK293 cells. Particulars: Membrane vesicle.
Assay [6] shares this target. Description: TP_TRANSPORTER: inhibition of MTX uptake (MTX: 1 uM, VP-16: 300 uM) in membrane vesicles from MRP3-expressing HEK293 cells. To be noted: Membrane vesicle.
The target is the same in assay [7]. In words: TP_TRANSPORTER: inhibition of MTX uptake (MTX: 1 uM, GC: 300 uM) in membrane vesicles from MRP3-expressing HEK293 cells. Particulars: Membrane vesicle.
Assay [8] has the same target. In words: TP_TRANSPORTER: inhibition of MTX uptake (MTX: 1 uM, PSC-833: 10 uM) in membrane vesicles from MRP3-expressing HEK293 cells. To be noted: Membrane vesicle.
The target is the same in assay [9]. In words: TP_TRANSPORTER: inhibition of MTX uptake (MTX: 1 uM, MK571: 100 uM) in membrane vesicles from MRP3-expressing HEK293 cells. Particulars: Membrane vesicle.

For the compound `CC[C@]1(O)C[C@H]2CN(CCc3c([nH]c4ccccc34)[C@@](C(=O)OC)(c3cc4c(cc3OC)N(C=O)[C@H]3[C@@](O)(C(=O)OC)[C@H](OC(C)=O)[C@]5(CC)C=CCN6CC[C@]43[C@@H]65)C2)C1`, the Activity in [1] was 39.1%.

In the case of `CC(=O)O[C@@H]1[C@@H]2[C@@H](OC(C)=O)C=C3[C@H]([C@H](O)C[C@]4(C)[C@@H]([C@H](C)[C@H](O)CCC(C)C)CC[C@@H]34)[C@@]2(C)CC[C@@H]1OC(C)=O`, the Activity in [2] is 56.9%.

On to `COc1cccc2c1C(=O)c1c(O)c3c(c(O)c1C2=O)C[C@@](O)(C(=O)CO)C[C@@H]3O[C@H]1C[C@H](N)[C@H](O)[C@H](C)O1`, for which the Activity in assay [3] is 80%.

As for `C[C@]12CC[C@@H]3c4ccc(O)cc4CC[C@H]3[C@@H]1CC[C@@H]2O[C@@H]1O[C@H](C(=O)O)[C@@H](O)[C@H](O)[C@H]1O`, the Activity in [4] was 8.27%.

Take `Cc1nc(C)c(P2(=O)O[C@H](C)C[C@@H](C)O2)c(-c2cccc([N+](=O)[O-])c2)c1C(=O)OCCN1CCN(C(c2ccccc2)c2ccccc2)CC1` (some centres undefined): the Activity in assay [5] is 3%.

For `COc1cc([C@@H]2c3cc4c(cc3[C@@H](O[C@@H]3O[C@@H]5CO[C@@H](C)O[C@H]5[C@H](O)[C@H]3O)[C@H]3COC(=O)[C@H]23)OCO4)cc(OC)c1O`, the Activity in assay [6] was 3.47%.

Take `C[C@H](CCC(=O)NCC(=O)O)[C@H]1CC[C@H]2[C@@H]3[C@H](O)C[C@@H]4C[C@H](O)CC[C@]4(C)[C@H]3C[C@H](O)[C@]12C`: the Activity in assay [7] is 10.4%.

Consider `C/C=C/C[C@@H](C)C(=O)[C@H]1C(=O)N[C@@H](C(C)C)C(=O)N(C)CC(=O)N(C)[C@@H](CC(C)C)C(=O)N[C@@H](C(C)C)C(=O)N(C)[C@@H](CC(C)C)C(=O)N[C@@H](C)C(=O)N[C@H](C)C(=O)N(C)[C@@H](CC(C)C)C(=O)N(C)[C@@H](CC(C)C)C(=O)N(C)[C@@H](C(C)C)C(=O)N1C`, for which, in [8], the Activity was 61.4%.

For `CN(C)C(=O)CCSC(SCCC(=O)O)c1cccc(/C=C/c2ccc3ccc(Cl)cc3n2)c1` (centres undefined), the Activity in assay [9] is 2.3%.
